{"source": "patent US20110105436A1", "about": "“HETEROARYL COMPOUNDS, COMPOSITIONS, AND METHODS OF USE IN CANCER TREATMENT” (AUCKLAND UNISERVICES LIMITED, priority 2008, published 2011)", "key": {"[1]": {"system": "yeast deletion strains", "experiment": "Killing curves of yeast deletion strains", "assay_type": "cell-based, S. cerevisiae", "excerpt": "Screen in yeast and killing curves. Genotypes of the parental yeast strain BY4743, construction of the homozygous diploid deletion strains, and construction of the homozygous diploid deletion pool have been described previously (Thomas, G. V., et al., Nat. Med. 2006, 12, 122). A mutant pool of 4728 nonessential homozygous diploid deletion strains was used. The parental diploid strain BY4743 was used as control in survival and complementation assays. […]\nA. Killing curves for 8 deletion yeast strains. Wild-type, ALG5, APS1, CLA4, DRS2, OSH3, VPS20, VPS25, YPT31 were incubated with STF-62247 (0-100 μM) for 1 hour and colony formation was evaluated after two days. Each point of the survival is calculated by the average of two different experiments in triplicate and as the percent of treated on untreated plate. B. Quantitative real time PCR for CHMP6, PAK2, RAB11a, OSBP3 and ALG5 in RCC4 and RCC4/VHL. Histogram is calculated by the average of three different experiments in triplicate as the percent of RCC4/VHL on RCC4 cells. […] Colony formation was evaluated as described before. *p<0.05 represents the difference between VHL cells and VHL with siRNA in presence of 5 μM of STF-62247."}, "[2]": {"system": "RCC4, RCC4/VHL, SN12C and SN12C-VHL shRNA cells", "experiment": "Vacuole formation by light and time-lapse microscopy", "assay_type": "cell-based", "protocol": "A. Phase contrast pictures of VHL-deficient RCC4 and SN12C-VHL shRNA cells and VHL-positive cells RCC4 and SN12C after 20 hrs of 1.25 μM STF-62247. B. Immunostaining for LC3 following STF-62247 treatment at 1.25 μM for 20 hrs with or without 2 mM of 3-MA in RCC4 with and without VHL cells. After treatment, cells were fixed, permeabilized and processed for the detection of punctuate staining by indirect immunofluorescence. C. Autophagic vacuoles stained with monodansylcadaverine (MDC). After STF-62247 treatment in the same conditions, MDC was added for the last 10 minutes. Cells were fixed, washed with PBS and observed directly under microscope. D. Western blot for LC3 in RCC4, RCC4/VHL, SN12C, and SN12C-VHL shRNA cells after STF-62247 treatment with or without 3-MA. Nutrient starvation (EBSS) is used as positive control. […] Viability is measured by trypan blue exclusion assay and is represented by the average of three different experiments in duplicate as the percent of treated on untreated cells. […]\nA. RCC4 and RCC4/VHL were treated with 1.25 μM of each 19 analogs for 20 hours and the presence of vacuoles was examined under light microscopy. […] Acidic vesicle organelles (AVO) measured by FACS analysis in cells treated with 1.25 μM of STF-62247 or with compounds 21, 15, 25, 47, and 53 and stained with acridine orange."}, "[3]": {"system": "RCC4, RCC4/VHL, SN12C and SN12C-VHL shRNA cells", "experiment": "Clonogenic cell survival assay", "assay_type": "cell-based", "protocol": "Clonogenic Cell Survival Assay. RCC4, RCC4/VHL, SN12C and SN12C-VHL shRNA were plated at 300 cells per 60 mm tissue culture dish. The following day, vehicle or STF-62247 was added and cells were incubated in the presence of drug for 10 days in RCC4 and RCC4/VHL and 7-10 days for SN12C and SN12C-VHL shRNA. The colonies were stained with crystal violet, and quantified. Each experiment was performed at least three times in triplicate.\nA. RCC4 and RCC4/VHL cells were labeled with EYFP and the effect of STF-62247 was monitored by fluorescence in each cell type separately. Cells are pseudocolored. B. Clonogenic assay in RCC4, RCC4/VHL, SN12C, SN12C-VHL shRNA cells in the presence of STF-62247 (0-30 μM). Each point of the cell survival is calculated by the average of three different experiments in triplicate as the percent of treated on untreated plate. The error bars represented the standard error of the mean (SEM). C. Upper Panel, clonogenic assay in RCC4 infected with HIF-1α or HIF-2α shRNA by retroviral infection in presence of drug in same conditions described above. Bottom panel, HIF-1α or HIF-2α protein expression evaluated by western blot in RCC4 cells with HIF-1α or HIF-2α shRNA. Tubulin is used as loading control. […] Tumor volume was measured every 2-3 days and data are represented in fold. Five tumors in each condition were analyzed where * p<0.05, **p<0.01 and ***p<0.005."}}}
{"smiles": "Cc1cccc(Nc2nc(-c3ccncc3)cs2)c1", "note": "[Compound 5, N-(3-Methylphenyl)-4-(4-pyridinyl)-1,3-thiazol-2-amine]", "values": [{"measurement": "sensitivity of yeast deletion strain", "setting": "[1]; ATG8 deletion strain, data not shown", "value": "did not exhibit sensitivity to STF-62247"}, {"measurement": "toxicity in yeast deletion strains", "setting": "[1]; CLA4, VPS20, ALG5, OSH3 and YPT31 deletion strains, 0-100 μM, 1 h", "value": "significant toxicity in response to STF-62247"}, {"measurement": "vacuole formation", "setting": "[2]; 1.25 μM, 20 hrs, FIG. 2A", "value": "accumulated intracytoplasmic vacuoles characteristic of cells undergoing autophagy"}, {"measurement": "time of appearance of vacuoles after addition", "setting": "[2]; time-lapse for 48 hours, RCC cells with and without VHL", "value": 3, "unit": "h"}, {"measurement": "dependence of cytotoxicity on HIF", "setting": "[3]; RCC4 with HIF-1α or HIF-2α shRNA, RCC4/VHL with stable HIF-2α", "value": "induces cytotoxicity in VHL-null cells in a HIF-independent manner"}, {"measurement": "selective toxicity in clonogenic assays", "setting": "[3]; VHL-deficient versus VHL wild-type cells, 0-30 μM, FIG. 1B", "value": "selectively toxic to VHL-deficient cells compared to their VHL wild-type counterparts"}]}
